We go through 25 compounds from patent US20220348590A1, “CYCLOOXYGENASE-2 INHIBITORS AND USES THEREOF” (The Board Institute, Inc., priority 2019, published 2022).

In assay [1] the target is T1, ovine COX-1 (oCOX-1) (Ovis aries, UniProt P05979).
T1 construct: purchased Cayman Chemicals (Ann Arbor, Mich.)
T1 sequence (P05979 25-600): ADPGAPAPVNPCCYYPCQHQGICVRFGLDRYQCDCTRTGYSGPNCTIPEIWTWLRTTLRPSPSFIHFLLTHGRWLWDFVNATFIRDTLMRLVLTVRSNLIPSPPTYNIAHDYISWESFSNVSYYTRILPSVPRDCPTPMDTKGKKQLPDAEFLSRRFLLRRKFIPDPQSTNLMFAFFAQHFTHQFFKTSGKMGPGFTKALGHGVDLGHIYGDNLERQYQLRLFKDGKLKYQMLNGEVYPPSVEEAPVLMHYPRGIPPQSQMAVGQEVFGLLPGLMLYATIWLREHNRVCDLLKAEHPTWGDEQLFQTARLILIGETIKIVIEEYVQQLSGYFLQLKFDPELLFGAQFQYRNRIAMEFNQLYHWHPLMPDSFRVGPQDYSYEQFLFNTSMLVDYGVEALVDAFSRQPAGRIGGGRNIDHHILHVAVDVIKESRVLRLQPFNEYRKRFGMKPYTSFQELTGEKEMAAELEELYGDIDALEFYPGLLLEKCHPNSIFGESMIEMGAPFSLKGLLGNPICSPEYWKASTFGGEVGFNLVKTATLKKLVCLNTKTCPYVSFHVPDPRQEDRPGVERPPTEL
The experiment in a line: LCMS-based COX-1 enzymatic inhibition assay (PGE2 quantification). The class given is biochemical. To be noted: 10 minutes; for IC50: average. On the procedure:
We have adapted a previously reported cyclooxygenase enzymatic assay utilizing LCMS quantification of PGE2 as the product of COX-1 and COX2 catalyzed conversion of arachidonic acid to evaluate the binding properties of newly synthesized ligands [Cao, 2011]. These optimized and miniaturized (384-well plates) LCMS-based COX-1 and COX2 enzymatic assays enabled us to quickly evaluate newly synthesized ligands for COX2 binding affinity and selectivity vs COX-1. Using a shorter ligand-enzyme incubation time in the LCMS assay (2 minutes vs 10 minutes) also permitted us to prioritize ligands with faster binding kinetics. Considering the relatively slow on-rate kinetics of known coxibs, due to their 3-step binding mechanism [Marnett, 2009], we believe that optimizing this critical parameter will be key to the successful development of a COX2 PET tracer. Using these enzymatic assays, we have evaluated>200 newly synthesized ligands against COX2 and >20 ligands against COX-1. Another critical property necessary for a good PET radiotracer is to have low non-specific binding (NSB) to increase the free fraction and maximize the signal to noise ratio. This property can be evaluated using in-vitro protein binding assays, and we have now evaluated>50 newly synthesized ligands in mouse, rat and human plasma protein binding (PPB) assays as well as >15 ligands in a mouse brain protein binding (BPB) assay.
Ovine COX-1 (oCOX-1), ovine COX2 (oCOX2), human recombinant COX2 (hCOX2), arachidonic acid, PGE2, d4-PGD2, and […] (labeled with deuterium atoms at positions 3 and 4) were purchased from Cayman Chemicals (Ann Arbor, Mich.). The cofactors (−)epinephrine and hematin, and the COX inhibitors indomethacin, resveratrol and diclofenac were purchased from Sigma-Aldrich (St. Louis, Mo.). Celecoxib was purchased from 3B PharmaChem International (Wuhan, China). All organic solvents were HPLC grade or better and were purchased from Thermo Fisher (Hanover Park, Ill.). Formic acid was purchased from EMD Chemicals (San Diego, Calif.). Purified water was prepared by using a Millipore Milli-Q purification system (Millipore, Billerica, Mass.). All other chemicals and solvents were ACS reagent grade, unless stated otherwise.
In an Eppendorf tube, 146 μL of 100 mM Tris.HCl (pH 8.0) buffer, 2 μL of 100 μM hematin (co-factor) and 10 μL of 40 mM L-epinephrine (co-factor) were mixed at room temperature. Next, 20 μL of Tris.HCl (pH 8.0) buffer containing 0.2 μg COX2 or 0.1 μg COX-1 (approximately 1 unit of enzyme; 1 unit COX utilizes 1 nmol 02/mg/min at 37° C.) was added, and the solution was incubated at room temperature for 2 min. A 2 μL aliquot of the COX inhibitor in DMSO was added to the enzyme solution and preincubated at 37° C. for 10 min. Negative controls were identical except that 2 μL aliquots of DMSO without inhibitor were used instead.
Each COX reaction was initiated by adding 20 μL of arachidonic acid in Tris.HCl (pH 8.0) buffer to give a final concentration of 5 μM; and the reaction was terminated after 2 min by adding 20 μL of 2.0 M HCl. The surrogate standards d4-PGE2 and d4-PGD2 (10 μL aliquot of 50 ng/mL solution in methanol) were added to correct for errors or degradation during sample handling and for variation in injection volume or instrument response during LC-MS-MS. After 30 min, PGE2, PGD2 and their surrogate standards were extracted from each incubation mixture using 800 μL hexane/ethyl acetate (50:50, v/v). The organic phase was removed, evaporated to dryness, and reconstituted in 100 μL methanol/water (50:50, v/v) for analysis using LC-MS-MS.
The concentration of PGE2 in each sample was measured using LC-MS-MS, and the percent of COX inhibition by each test solution was determined by comparing the amount of PGE2 produced in the experiment with that produced in the negative control incubation. The formation of PGD2 was measured for quality control purposes, since the levels of PGD2 should be proportional to those of PGE2. […]

Assay [2] has as its target T2, human recombinant COX2 (hCOX2) (UniProt P35354).
T2 sequence (P35354 1-604): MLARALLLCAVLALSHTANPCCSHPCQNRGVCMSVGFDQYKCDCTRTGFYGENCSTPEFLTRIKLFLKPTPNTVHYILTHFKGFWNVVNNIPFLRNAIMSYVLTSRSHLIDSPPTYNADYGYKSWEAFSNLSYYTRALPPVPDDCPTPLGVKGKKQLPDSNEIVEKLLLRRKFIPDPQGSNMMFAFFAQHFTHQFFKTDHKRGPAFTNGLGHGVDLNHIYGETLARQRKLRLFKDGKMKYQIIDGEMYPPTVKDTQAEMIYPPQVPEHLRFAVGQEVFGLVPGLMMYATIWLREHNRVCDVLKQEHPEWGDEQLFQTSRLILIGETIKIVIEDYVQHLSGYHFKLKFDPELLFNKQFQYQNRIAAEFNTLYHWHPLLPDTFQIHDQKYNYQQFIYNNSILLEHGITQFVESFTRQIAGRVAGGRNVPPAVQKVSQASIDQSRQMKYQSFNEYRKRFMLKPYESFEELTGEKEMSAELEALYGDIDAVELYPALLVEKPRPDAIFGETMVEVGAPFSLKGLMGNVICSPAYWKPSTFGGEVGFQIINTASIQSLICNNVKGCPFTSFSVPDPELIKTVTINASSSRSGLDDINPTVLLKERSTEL
The assay is described as follows: LCMS-based COX2 enzymatic inhibition assay (PGE2 quantification). The class given is biochemical. On the set-up: COX2 2 minutes pge2/pge2d4 area ratio Avg; other: 2 minutes; readout pge2/pge2d4 area ratio; average; COX2 2 minutes pge2/pge2d4 area ratio Avg; LLE; average LLE; COX2 2 minutes pge2 area (counts) Avg; readout pge2 area (counts); other: 2 min; "ovine COX2 (oCOX2), human recombinant COX2 (hCOX2)". To be noted: for IC50: average. In a few lines: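 Ovine COX-1 (0.1 μg) or human recombinant COX2 (0.2 μg) in 100 mM Tris.HCl pH 8.0 with hematin and epinephrine, preincubated with inhibitor 10 min at 37 °C. Reaction with 5 μM arachidonic acid stopped after 2 min with HCl; PGE2 quantified by LC-MS-MS. IC50 from 12 concentrations in triplicate.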

Where [3] appears, read: 2 minutes, readout pge2 area (counts), average LLE.
Setting [4] is: read-out: COX2 2 minutes pge2/pge2d4 area ratio Avg. IC50 (microM), 2 minutes, readout pge2/pge2d4 area ratio.

Structures are written as SMILES. Where two headings read alike, the source gives them in different places.

`C[C@H](Oc1cccc(-c2ccc(S(C)(=O)=O)cc2)n1)c1cccs1` (single isomer, unassigned) [Compound 46]: the “COX1 10 minutes pge2/pge2d4 area ratio Avg. LLE” value in assay [1] (readout pge2/pge2d4 area ratio, average LLE) was 0.04315. Besides, the IC50 in assay [1] (readout pge2/pge2d4 area ratio, read-out: COX1 10 minutes pge2/pge2d4 area ratio Avg. IC50) was determined as 50.9 µM; in assay [1] (readout pge2 area (counts), read-out: COX1 10 minutes pge2 area (counts) Avg. IC50), 34.7 µM; in assay [2] (2 minutes, readout pge2/pge2d4 area ratio, read-out: COX2 2 minutes pge2/pge2d4 area ratio Avg. IC50) it was 0.0202 µM; in assay [2] (2 minutes, readout pge2 area (counts), read-out: COX2 2 minutes pge2 area (counts) Avg. IC50) it was 0.0235 µM. Also, the “COX1 10 minutes pge2 area (counts) Avg. LLE” value in assay [1] (readout pge2 area (counts), average LLE) was found to be 0.2102. Further, the “COX2 2 minutes pge2/pge2d4 area ratio Avg. LLE” value in assay [2] (2 minutes, readout pge2/pge2d4 area ratio, average LLE) is recorded as 3.462. In addition, in assay [2] (setting [3]), the “COX2 2 minutes pge2 area (counts) Avg. LLE” value (shortened to “COX2 2 minutes pge2 area”) came to 3.431.

Consider `CS(=O)(=O)c1ccc(-c2cncc([S+]([O-])Cc3cccs3)n2)cc1` (stereo not shown) [Compound 303], for which the IC50 in assay [2] (setting [4]) stood at 5.2 µM.

On to `CS(=O)(=O)c1ccc(-c2cncc(N3Cc4ccncc4C3)n2)cc1` [Compound 304], for which, in assay [2] (setting [4]), the IC50 amounted to 5.2 µM.

With `CS(=O)(=O)c1ccc(-c2nc(NCc3cccs3)cnc2C(=O)O)cc1` [Compound 305], the IC50 in assay [2] (setting [4]) is 5.2 µM.

For the compound `CN1CC[C@@H](CNc2cncc(-c3ccc(S(C)(=O)=O)cc3)n2)C1` [Compound 306], the “COX2 2 minutes pge2 area” value in assay [2] (setting [3]) is recorded as 4.594. In addition, in assay [2] (setting [4]), the IC50 was 5.2 µM.

As to `CN1CC[C@H](CNc2cncc(-c3ccc(S(C)(=O)=O)cc3)n2)C1` [Compound 307], the IC50 in assay [2] (setting [4]) was 5.2 µM.

On to `CS(=O)(=O)c1ccc(-c2ccc3c(ncn3Cc3cccs3)n2)cc1` [Compound 308], for which the IC50 in assay [2] (setting [4]) worked out at 5.2 µM.

With `Cc1ccc(COc2cncc(-c3ccc(S(C)(=O)=O)cc3)n2)cc1` [Compound 309], the “COX2 2 minutes pge2 area” value in assay [2] (setting [3]) is listed as 2.514. In addition, the IC50 in assay [2] (setting [4]) turned out to be 5.2 µM.

`CS(=O)(=O)c1ccc(Oc2cccc(NCc3cccs3)n2)cc1` [Compound 310]: the IC50 in assay [2] (setting [4]) came to 5.2 µM.

Regarding `CS(=O)(=O)c1ccc(-n2ccc3ccc(NC(=O)c4cccs4)nc32)cc1` [Compound 311], in assay [2] (setting [4]), the IC50 was found to be 5.2 µM.

For the compound `CS(=O)(=O)c1ccc(-c2cncc(OCCc3cccs3)n2)cc1` [Compound 312], the “COX2 2 minutes pge2 area” value in assay [2] (setting [3]) turned out to be 2.744. Further, the IC50 in assay [2] (setting [4]) came to 5.2 µM.

For `CS(=O)(=O)c1ccc(-c2cncc(N3Cc4ccccc4C3)n2)cc1` [Compound 313], the IC50 in assay [2] (setting [4]) worked out at 5.2 µM.

On to `CS(=O)(=O)c1ccc(-c2cc(OCc3cccs3)ccn2)cc1` [Compound 315], for which the IC50 in assay [2] (setting [4]) came out at 5.2 µM.

On to `CS(=O)(=O)c1ccc(-c2cnc(O)c(NCc3cccs3)n2)cc1` [Compound 316], for which the “COX2 2 minutes pge2 area” value in assay [2] (setting [3]) stood at 3.634. Also, the IC50 in assay [2] (setting [4]) was 5.2 µM.

Regarding `CS(=O)(=O)c1ccc(-c2cnc3cn(Cc4cccs4)nc3c2)cc1` [Compound 317], the IC50 in assay [2] (setting [4]) was 5.2 µM.

On to `CS(=O)(=O)c1ccc(-c2cc(OCc3cccs3)ncn2)cc1` [Compound 318], for which, in assay [2] (setting [4]), the IC50 stood at 5.2 µM.

For the compound `CS(=O)(=O)c1ccc(-c2cncc(N3CCC4(CCCC4)CC3)n2)cc1` [Compound 319], the IC50 in assay [2] (setting [4]) amounted to 5.2 µM.

In the case of `CS(=O)(=O)c1ccc(-c2cncc(C#Cc3cccs3)n2)cc1` [Compound 320], in assay [2] (setting [4]), the IC50 stood at 5.2 µM.

Consider `CS(=O)(=O)c1ccc(-c2cnnc(OCc3cccs3)c2)cc1` [Compound 321], for which, in assay [2] (setting [4]), the IC50 was 5.2 µM.

`CS(=O)(=O)c1ccc(-c2cc(OCc3ccco3)cnn2)cc1` [Compound 323]: the IC50 in assay [2] (setting [4]) stood at 5.2 µM.

For the compound `CS(=O)(=O)c1ccc(-c2cncc(N3CCc4ccccc4C3)n2)cc1` [Compound 324], in assay [2] (setting [4]), the IC50 was 5.2 µM.

As for `CS(=O)(=O)c1ccc(-c2cc3nn(Cc4cccs4)cc3cn2)cc1` [Compound 325], the IC50 in assay [2] (setting [4]) amounted to 5.2 µM.

Regarding `CS(=O)(=O)c1ccc(-c2cncc(N3CCCC3)n2)cc1` [Compound 326], the “COX2 2 minutes pge2 area” value in assay [2] (setting [3]) was found to be 4.034. The “COX2 10 minutes pge2 area (counts) Avg. LLE” value in assay [2] (10 minutes, readout pge2 area (counts), average LLE) came to 4.754. The IC50 is 0.99 µM in assay [2] (10 minutes, readout pge2 area (counts), read-out: COX2 10 minutes pge2 area (counts) Avg. IC50) and 5.2 µM in assay [2] (setting [4]).

In the case of `CS(=O)(=O)c1ccc(-c2nc(NCc3cccs3)no2)cc1` [Compound 327], in assay [2] (setting [4]), the IC50 was 5.2 µM.

On to `CS(=O)(=O)c1ccc(-c2cncc(N3Cc4cccnc4C3)n2)cc1` [Compound 328], for which, in assay [2] (setting [3]), the “COX2 2 minutes pge2 area” value came out at 4.414. In addition, the IC50 in assay [2] (setting [4]) came to 5.2 µM.
